Measured values as given in patent US20190352358A1, “COMPOUNDS, COMPOSITIONS AND USES THEREOF FOR IMPROVEMENT OF BONE DISORDERS” (ALIZE PHARMA III SAS, priority 2017, published 2019).
Non-standard residues stand in square brackets, D forms with d. Residues, ends and D or L forms follow the SMILES beside them. Primed or numbered codes have the meaning given here. No end group written: not given here. *: point of attachment. PEG20′ = PEG20 chain (pegylated), attached via a cysteine; C16 diacid = O=C(O)CCCCCCCCCCCCCCC(=O)*; Arachidoyl = CCCCCCCCCCCCCCCCCCCC(=O)*; Stearoyl = CCCCCCCCCCCCCCCCCC(=O)*; Palmitoyl = CCCCCCCCCCCCCCCC(=O)*

Tests used:
[1] = tested on: MC-3T3 E1 clone 4 (CL4) osteoblast cells; experiment: Osteocalcin expression during in vitro osteoblast differentiation, PEGylated analogs (Example 6); type: cell-based; conditions: Table 17; test peptide 2 μg/mL; 18-21 day interval
Protocol: (§1) Each peptide was tested in a biologic assay measuring its ability to stimulate differentiation of osteoblast cells over a 18-21 day interval as assessed by the stimulation of osteocalcin protein synthesis. MC-3T3 E1 clone 4 (CL4) osteoblast cells were obtained from ATCC (Manassas, Va., USA). Cells were cultured in α-MEM containing 10% fetal bovine serum (FBS; Thermo Fisher Scientific, Pittsburgh, Pa., USA). After confluency, culture medium was changed to differentiation medium (DM), which contained 10% FBS plus 50 μg/mL ascorbic acid and 4 mM β-glycerol phosphate, with or without a test peptide (2 μg/mL). Fresh DM, with or without test peptide, was applied every 72 hours. The cell monolayers were lysed in a modified radioimmunoprecipitation assay (RIPA) buffer. Total cellular protein in the lysates was determined using BCA (Thermo Fisher Scientific, Rockford, Ill., USA). Cell proteins are separated on SD S-PAGE gel and transferred on PVDF membrane for analysis. Osteocalcin detection was performed using anti-osteocalcin antibody at 1:200 dilution (Santa Cruz Biotechnology, Inc, Santa Cruz, Calif., USA) and visualized using enhanced chemiluminescence (Thermo Fisher Scientific, Rockford, Ill., USA).

[2] = tested on: MC-3T3 E1 clone 4 (CL4) osteoblast cells; experiment: Osteocalcin expression during in vitro osteoblast differentiation, acylated and cyclic analogs (Example 7); type: cell-based; conditions: for Fold increase vs DM ± SE: Table 18, test peptide 1 μg/L, 18-21 day interval
Protocol: as §1, with “Each acylated” for “Each”, “(1 μg/L).” for “(2 μg/mL).”, “SDS-PAGE” for “SD S-PAGE”
In a separate experiment, the effect of cyclization was examined on of the HBD1 (3-11) peptide. The cyclic HBD1 (3-11) was synthetized and tested on the in vitro osteoblast differentiation assay.

[3] = Pharmacokinetics in male Sprague Dawley rats after intravenous and subcutaneous injection (Example 10); type: in vivo; conditions: 1 μmol net peptide/kg, rat
Protocol: The peptides were reconstituted in saline (0.9% NaCl). Three male Sprague Dawley rats were used per group. Intravenous doses were administered into a lateral tail vein at the dose of 1 μmol net peptide/kg. Subcutaneous doses were administered into the right flank of each animal, also at the dose of 1 μmol net peptide/kg. Following dosing, serial whole blood samples (ca. 0.25 mL) were collected from a lateral tail vein into K2EDTA treated containers. Following each blood sample collection, samples were placed into a cooling block at 4° C. Samples were collected prior to dosing then at 2, 5, 15 and 30 minutes then 1, 2, 4, 6 and 8 and 24 hours post dose for intravenous injection and at 15 and 30 minutes then 1, 2, 4, 6, 8 and 24 hours post dose for subcutaneous injection.
Blood samples were centrifuged at 10000×g for 2 minutes at 4° C. and resultant plasma aspirated off into clean fully, labelled tubes. Plasma samples were snap frozen following aspiration then stored at −80° C. Peptides were extracted and analyzed as described in Example 9. The limits of quantification of these methods were 0.001 nmol/mL for cyclic HBD1 (3-11) and HBD1 (3-11) and 0.003 nmol/mL for HBD1 (1-13). All values below these limits of quantification were considered as zero.

[4] = tested on: MC-3T3 E1 clone 4 (CL4) osteoblast cells; experiment: Osteocalcin expression during in vitro osteoblast differentiation, various doses of analogs (Example 8); type: cell-based; conditions: Table 19, 18 day interval
Protocol: The peptides were tested at different concentrations in a biologic assay measuring their ability to stimulate differentiation of osteoblast cells over a 18 day interval as assessed by the stimulation of osteocalcin protein synthesis. MC-3T3 E1 clone 4 (CL4) osteoblast cells were obtained from ATCC (Manassas, Va., USA). Cells were cultured in α-MEM containing 10% fetal bovine serum (FBS; Thermo Fisher Scientific, Pittsburgh, Pa., USA). After confluency, culture medium was changed to differentiation medium (DM), which contained 10% FBS plus 50 μg/mL ascorbic acid and 4 mM β-glycerol phosphate, with or without an ascending dose of the peptide. Fresh DM, with or without the peptide, was applied every 72 hours. The cell monolayers were lysed in a modified radioimmunoprecipitation assay (RIPA) buffer. Total cellular protein in the lysates was determined using BCA (Thermo Fisher Scientific, Rockford, Ill., USA). Cell proteins are separated on SDS-PAGE gel and transferred on PVDF membrane for analysis. Osteocalcin detection was performed using anti-osteocalcin antibody at 1:200 dilution (Santa Cruz Biotechnology, Inc, Santa Cruz, Calif., USA) and visualized using enhanced chemiluminescence (Thermo Fisher Scientific, Rockford, Ill., USA).

[5] = Stability of HBD1 fragments in human plasma; type: in vitro ADME
Protocol: The peptides were spiked at 1 μg/mL (peptide backbone) into pre-warmed human K2EDTA plasma (at 37° C.) and incubated for up to 48 hours. Aliquots of plasma were extracted at specific time points (0, 24 and 48 hours post spike). Extraction was performed with acetonitrile:water (75:25, v/v) for HBD1 (1-13), HBD1 (1-13) with palmitic acid at the N-terminus (C16:0), HBD1 (3-11) with palmitic acid at the N-terminus (C16:0)) and HBD1 (3-11) with stearic acid at the N-terminus (C18:0) or with acetonitrile:water:formic acid (75:25:0.1, v/v/v) for HBD1 (3-11) and cyclic HBD1 (3-11). The peptides were analyzed using developed LC (C18 reverse phase column)—positive ion electrospray MS/MS methods specific to each peptide. The peak area at each time point was expressed as a percentage of the value obtained for the t=0 minutes time point.

[6] = Pharmacokinetics of acylated analogs in male Sprague Dawley rats after subcutaneous injection (Example 11); type: in vivo; parameters: AUC(0-t): concentration or dose not given beside the values; conditions: sc, rat, Table 24
Protocol: The peptides were reconstituted in saline (0.9% NaCl). Three male Sprague Dawley rats (approximately 6 weeks of age) were used per group. Subcutaneous doses were administered into the right flank of each animal […]. Following dosing, serial whole blood samples (ca. 0.3 mL) were collected from retro-orbital sinus into K2EDTA treated containers. Following each blood sample collection, samples were placed into a cooling block at 4° C. Samples were collected prior to dosing then at 15 and 30 minutes then 1, 2, 4, 6, 8 and 24 hours post dose for subcutaneous injection. Blood samples were centrifuged at 3500×rpm for 10 minutes at 4° C. and resultant plasma aspirated off into clean fully, labelled tubes. Plasma samples were snap frozen following aspiration then stored at −80° C. The peptides were extracted with acetonitrile:water (75:25, v/v) and analyzed using developed LC-MS/MS methods as described in Example 9. The limits of detection of these methods are 0.003 nmol/mL for HBD1 (1-13) with palmitic acid at the N-terminus (C16:0), 0.0008 nmol/mL for HBD1 (3-11) with palmitic acid at the N-terminus (C16:0), 0.0070 nmol/mL for HBD1 (3-11) with stearic acid at the N-terminus (C18:0), and 0.0015 nmol/mL for HBD1 (3-11) with myristic acid at the N-terminus (C14:0), HBD1 (3-11) with arachidic acid at the N-terminus (C20:0), HBD1 (3-11) with palmitic diacid at the N-terminus (C16:0-diacid), HBD1 (3-11) with palmitic acid at the C-terminus (C16:0). All values below these limits of quantification were considered as zero.

[7] = male, Sprague Dawley, plasma, iv
[8] = male, Sprague Dawley, plasma, sc

Compound | AUC(0-t) ([6]; male, Sprague Dawley, plasma) [µM·h] | Cmax ([6]; male, Sprague Dawley, plasma) [nM] | Tmax ([6]; male, Sprague Dawley, plasma) [min] | Tlast (last time point with detectable peptide) [6] [h] | Fold increase vs SEQ ID NO: 1 ± SE [1] [fold] | Fold increase vs DM ± SE [2] [fold] | other results
63 ([PEG20′]CKHHLGLEEPKKLR) [compound 63] |  |  |  |  | 1.4 ± 0.3 |  | 
64 (KHHLGLEEPKKLR; not fully specified; MOD_RES (13)..(13) Pegylated) [compound 64] |  |  |  |  | 2.2 ± 0.4 |  | 
65 ([PEG20′]CHHLGLEEPKK) [compound 65] |  |  |  |  | 1.4 ± 0.1 |  | 
66 (HHLGLEEPKK; not fully specified; MOD_RES (10)..(10) Pegylated) [compound 66] |  |  |  |  | 2.2 ± 0.2 |  | 
67 ([PEG20′]CHLGLEEPKK) [compound 67] |  |  |  |  | 1.9 ± 0.2 |  | 
CC(C)C[C@@H]1NC(=O)CNC(=O)[C@H](CC(C)C)NC(=O)[C@H](Cc2c[nH]cn2)NC(=O)[C@H](CCCCN)NC(=O)[C@H](CCCCN)NC(=O)[C@@H]2CCCN2C(=O)[C@H](CCC(=O)O)NC(=O)[C@H](CCC(=O)O)NC1=O [SEQ ID NO: 77, Cyclic(HLGLEEPKK)] (cyclo(EEPKKHLGL)) |  |  |  |  |  |  | in vitro biological activity of acylated or cyclic peptides vs parent peptides (in words) ([2]; text on Table 18 and separate experiment): did not appear to change the in vitro biological activity; Tlast (last time point with detectable peptide) ([3]; iv, listed as Cyclic HBD1 (3-11)): 8 h; bioavailability ([3]; male, Sprague Dawley, plasma, subcutaneous, sc vs iv, read-out: F (bioavailability)): 48%; AUC(0-t) [3, 7]: 2.09 µM·h; Cmax [3, 7]: 5720 nM; Tmax [3, 7]: 1.98 min; AUC(0-t) [3, 8]: 0.99 µM·h; Cmax [3, 8]: 1060 nM; Tmax [3, 8]: 15 min; Tlast (last time point with detectable peptide) ([3]; sc, listed as Cyclic HBD1 (3-11)): 4 h; Tlast (last time point with detectable peptide) ([3]; sc, listed as cyclic HBD1 (3-11)): ≤ 4 h

Now from value to compound, other results behind:

AUC(0-t) ([6]; male, Sprague Dawley, plasma) [µM·h] | Cmax ([6]; male, Sprague Dawley, plasma) [nM] | Tmax ([6]; male, Sprague Dawley, plasma) [min] | Tlast (last time point with detectable peptide) [6] [h] | Compound | Fold increase vs SEQ ID NO: 1 ± SE [1] [fold] | Fold increase vs DM ± SE [2] [fold] | other results
4.81 | 540 | 240 | 8 | CCCCCCCCCCCCCCCCCC(=O)N[C@@H](Cc1c[nH]cn1)C(=O)N[C@@H](CC(C)C)C(=O)NCC(=O)N[C@@H](CC(C)C)C(=O)N[C@@H](CCC(=O)O)C(=O)N[C@@H](CCC(=O)O)C(=O)N1CCC[C@H]1C(=O)N[C@@H](CCCCN)C(=O)N[C@@H](CCCCN)C(=O)O [compound 73] (Stearoyl-HLGLEEPKK-OH) |  | 2.93 ± 0.16 | Fold increase vs DM ± SD ([4]; dose 1.0 μM): 3.46 ± 0.47 fold; Fold increase vs DM ± SD ([4]; dose 2.0 μM): 4.48 ± 0.07 fold; Fold increase vs DM ± SD ([4]; dose 3.0 μM): 5.66 ± 0.45 fold; stability in human plasma (in words) ([5]; 24 and 48 hours incubation at 37° C.): similar; remaining at 24 h, 1 μg/mL ([5]; human, human K2EDTA plasma, spiked at 1 μg/mL, 37° C., 24 hours, read-out: Remaining parent peptide in human plasma 24 hours post spike): 89%; remaining at 48 h, 1 μg/mL ([5]; human, human K2EDTA plasma, spiked at 1 μg/mL, 37° C., 48 hours, read-out: Remaining parent peptide in human plasma 48 hours post spike): 91%
2.58 | 250 | 120 | 8 | CCCCCCCCCCCCCCCCCCCC(=O)N[C@@H](Cc1c[nH]cn1)C(=O)N[C@@H](CC(C)C)C(=O)NCC(=O)N[C@@H](CC(C)C)C(=O)N[C@@H](CCC(=O)O)C(=O)N[C@@H](CCC(=O)O)C(=O)N1CCC[C@H]1C(=O)N[C@@H](CCCCN)C(=O)N[C@@H](CCCCN)C(=O)O [compound 74] (Arachidoyl-HLGLEEPKK-OH) |  | 5.05 ± 0.95 | 
1.14 | 580 | 15 | 8 | CC(C)C[C@H](NC(=O)CNC(=O)[C@H](CC(C)C)NC(=O)[C@H](Cc1c[nH]cn1)NC(=O)CCCCCCCCCCCCCCC(=O)O)C(=O)N[C@@H](CCC(=O)O)C(=O)N[C@@H](CCC(=O)O)C(=O)N1CCC[C@H]1C(=O)N[C@@H](CCCCN)C(=O)N[C@@H](CCCCN)C(=O)O [compound 75] ({C16 diacid}-HLGLEEPKK-OH; C-terminus assumed) |  | 3.39 ± 0.19 | 
 |  |  | 8 | CCCCCCCCCCCCCCCC(=O)NCCCC[C@H](NC(=O)[C@H](CCCCN)NC(=O)[C@@H]1CCCN1C(=O)[C@H](CCC(=O)O)NC(=O)[C@H](CCC(=O)O)NC(=O)[C@H](CC(C)C)NC(=O)CNC(=O)[C@H](CC(C)C)NC(=O)[C@@H](N)Cc1c[nH]cn1)C(=O)O [compound 76] (H-HLGLEEPKK(Palmitoyl)-OH; N-terminus and C-terminus assumed) |  | 3.18 ± 0.31 | AUC(0-t) ([6]; in vivo): 1.09 µM·h; Cmax ([6]; in vivo): 500 nM; Tmax ([6]; in vivo): 15 min
